These are literature values, as cited in patent publication US10937641B2, “MALDI mass spectrometry method” (BiosparQ B.V., priority 2017, dated 2021).

In brackets after ≈: the same amount, converted by molar mass.

For the data set the following is noted: solubility defined at room temperature as intrinsic solubility.

On to `N#CC(=Cc1ccc(O)cc1)C(=O)O` [αCHCA, α-cyano-4-hydroxycinnamic acid], for which the solubility in water was 6000 µg/mL (≈ 31.7 mM).
